Here are results for 2 compounds from patent publication US7341749B2, “Flavopereirine and alstonine combinations in the treatment and prevention of prostate cancer” (Natural Source International Ltd., priority 2004, dated 2008).

In this assay the test system is LNCaP cells. As to the kind of experiment: Induction of apoptosis (PARP cleavage, Caspase-3 activity). Type of assay: cell-based, human. The settings on record: inferred from the extract experiments.

Take `COC(=O)C1=CO[C@@H](C)[C@@H]2Cn3ccc4c5ccccc5nc-4c3C[C@H]12` [alstonine]: the “induction of the apoptosis pathway (mechanism of action of the active compound)” value is “relatively minor effect”. As to `CCc1ccc2c3[nH]c4ccccc4c3cc[n+]2c1` [flavopereirine], the “induction of the apoptosis pathway (mechanism of action of the active compound)” value is given as “primary mechanism of action”.
